Values of other authors as cited in patent publication US10500182B2, “Compositions of ketogenic sources, micronutrients and phytochemicals for prophylaxis and mitigation of migraine headache” (priority 2018, dated 2019).

Columns and labels:
migraine [1] = details: oral and intravenous supplementation, migraineurs
migraine [2] = details: ten percent solution applied topically to the forehead and temples

SMILES | reduction of migraine frequency and severity (migraine [1]) | migraine pain and nausea (migraine [2])
[Mg+2] [magnesium, Magnesium] | more than 40% | –
CC1CCC(C(C)C)C(O)C1 (centres unmarked) [menthol] | – | effective at terminating migraine pain and easing nausea
